{"source": "patent US11702451B2", "about": "“Method for synthesizing amanitins” (Heidelberg Pharma Research GmbH, priority 2017, dated 2023)", "origin": "cited, not measured here", "biological_target": "DNA-dependent RNA polymerase II (Homo sapiens, UniProt P24928)", "conditions": "background statement, no method given; read-out: KD of the complex between amanitin and RNA-polymerase II", "data": [{"substance": "amanitin", "values": [{"measurement": "Kd", "value": 3, "unit": "nM"}]}]}
